pIC50: −log10 of the molar value.
System: 883617-216-R-J1-PDC complex spheroid viability
Assay: Anticancer human tumor 883617-216-R-J1-PDC patient-derived bladder carcinoma cell line growth inhibition [POLQ]
Conditions: for pIC50: curve of first compound; for viability, T/C: stronger effect = lower value
Outline: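 Growth inhibition in 3D: complex spheroids (tumor PDC, HUVEC, MSC) treated with POLQ inhibitor combinations; where Cmax unknown, highest tested concentration 10 microM, except SN-38 at 1 microM.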

[1] = second compound 0.0316 µM, first compound 0.0316 µM
[2] = second compound 0.0316 µM, first compound 0.1 µM
[3] = second compound 0.0316 µM, first compound 0.316 µM
[4] = second compound 0.0316 µM, first compound 1 µM
[5] = second compound 0.1 µM, first compound 0.0316 µM
[6] = second compound 0.1 µM, first compound 0.1 µM
[7] = second compound 0.1 µM, first compound 0.316 µM
[8] = second compound 0.1 µM, first compound 1 µM
[9] = second compound 0.316 µM, first compound 0.0316 µM
[10] = second compound 0.316 µM, first compound 0.1 µM
[11] = second compound 0.316 µM, first compound 0.316 µM
[12] = second compound 0.316 µM, first compound 1 µM
[13] = second compound 1 µM, first compound 0.0316 µM
[14] = second compound 1 µM, first compound 0.1 µM
[15] = second compound 1 µM, first compound 0.316 µM
[16] = second compound 1 µM, first compound 1 µM
[17] = second compound 3.16 µM, first compound 0.0316 µM
[18] = second compound 3.16 µM, first compound 0.1 µM
[19] = second compound 3.16 µM, first compound 0.316 µM
[20] = second compound 3.16 µM, first compound 1 µM
[21] = second compound 10 µM, first compound 0.0316 µM
[22] = second compound 10 µM, first compound 0.1 µM
[23] = second compound 10 µM, first compound 0.316 µM
[24] = second compound 10 µM, first compound 1 µM
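Also: spheroids exposed to compounds for seven days before readout.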
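For viability, T/C in this document: 100% = DMSO vehicle control viability.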

COc1cccc(OCCCN)c1-c1cc(Nc2cnc(C#N)cn2)n[nH]1 + Nc1ccc(C#CCN(C(=O)Cc2ncc(C(F)(F)F)cc2C(F)(F)F)c2ccc(F)cc2)nn1
pIC50 (second compound 0.0316 µM): 7.11
pIC50 (second compound 0.1 µM): 7.33
pIC50 (second compound 0.316 µM): 7.06
pIC50 (second compound 1 µM): 6.92
pIC50 (second compound 3.16 µM): 7.13
pIC50 (second compound 10 µM): 7.07
viability, T/C (second compound 0.0316 µM, first compound 0.00316 µM): 111%
viability, T/C (second compound 0.0316 µM, first compound 0.01 µM): 77%
viability, T/C [1]: 67%
viability, T/C [2]: 42.8%
viability, T/C [3]: 37.7%
viability, T/C [4]: 35.4%
viability, T/C (second compound 0.1 µM, first compound 0.00316 µM): 96.9%
viability, T/C (second compound 0.1 µM, first compound 0.01 µM): 95.6%
viability, T/C [5]: 55.2%
viability, T/C [6]: 43.6%
viability, T/C [7]: 41.4%
viability, T/C [8]: 33.7%
viability, T/C (second compound 0.316 µM, first compound 0.00316 µM): 99.3%
viability, T/C (second compound 0.316 µM, first compound 0.01 µM): 91.3%
viability, T/C [9]: 57.4%
viability, T/C [10]: 52.6%
viability, T/C [11]: 40.8%
viability, T/C [12]: 31.9%
viability, T/C (second compound 1 µM, first compound 0.00316 µM): 95.3%
viability, T/C (second compound 1 µM, first compound 0.01 µM): 78.2%
viability, T/C [13]: 64.8%
viability, T/C [14]: 53%
viability, T/C [15]: 40%
viability, T/C [16]: 28.6%
viability, T/C (second compound 3.16 µM, first compound 0.00316 µM): 85.9%
viability, T/C (second compound 3.16 µM, first compound 0.01 µM): 89.8%
viability, T/C [17]: 67.1%
viability, T/C [18]: 39.5%
viability, T/C [19]: 47.1%
viability, T/C [20]: 44.5%
viability, T/C (second compound 10 µM, first compound 0.00316 µM): 109%
viability, T/C (second compound 10 µM, first compound 0.01 µM): 89.8%
viability, T/C [21]: 63.6%
viability, T/C [22]: 48.8%
viability, T/C [23]: 39.5%
viability, T/C [24]: 36.2%

CC1COCCN1c1cc(-c2ccnn2C)c2ccnc(-c3ccn[nH]3)c2n1 (centres undefined) + COC1C(OC(N)=O)C(O)C(Oc2ccc3c(O)c(NC(=O)c4ccc(O)c(CC=C(C)C)c4)c(=O)oc3c2C)OC1(C)C
pIC50 (second compound 0.0316 µM): 6.53
pIC50 (second compound 0.1 µM): 6.55
pIC50 (second compound 0.316 µM): 6.91
pIC50 (second compound 1 µM): 6.81
pIC50 (second compound 3.16 µM): 6.81
pIC50 (second compound 10 µM): 6.86
viability, T/C [1]: 89.7%
viability, T/C [2]: 63.8%
viability, T/C [3]: 53.1%
viability, T/C [4]: 37%
viability, T/C (second compound 0.0316 µM, first compound 3.16 µM): 28.1%
viability, T/C (second compound 0.0316 µM, first compound 10 µM): 30.7%
viability, T/C [5]: 83.2%
viability, T/C [6]: 62.9%
viability, T/C [7]: 49.5%
viability, T/C [8]: 37.7%
viability, T/C (second compound 0.1 µM, first compound 3.16 µM): 31.7%
viability, T/C (second compound 0.1 µM, first compound 10 µM): 27%
viability, T/C [9]: 91.2%
viability, T/C [10]: 51%
viability, T/C [11]: 38.6%
viability, T/C [12]: 40.8%
viability, T/C (second compound 0.316 µM, first compound 3.16 µM): 33.1%
viability, T/C (second compound 0.316 µM, first compound 10 µM): 27.3%
viability, T/C [13]: 82.7%
viability, T/C [14]: 54.3%
viability, T/C [15]: 41.7%
viability, T/C [16]: 32.5%
viability, T/C (second compound 1 µM, first compound 3.16 µM): 26.5%
viability, T/C (second compound 1 µM, first compound 10 µM): 24.4%
viability, T/C [17]: 86.3%
viability, T/C [18]: 53.3%
viability, T/C [19]: 44%
viability, T/C [20]: 34.8%
viability, T/C (second compound 3.16 µM, first compound 3.16 µM): 29.6%
viability, T/C (second compound 3.16 µM, first compound 10 µM): 29.5%
viability, T/C [21]: 91.1%
viability, T/C [22]: 54.4%
viability, T/C [23]: 39.2%
viability, T/C [24]: 32.2%
viability, T/C (second compound 10 µM, first compound 3.16 µM): 29.8%
viability, T/C (second compound 10 µM, first compound 10 µM): 32.3%

Source: PubChem BioAssay AID1963833 (Molecular Pharmacology Branch, DTP, NCI, 2024)
